Activity data for three compounds are collected here from ChEMBL document CHEMBL1781882, “Neuroprotective effects of furopyrazole derivative of benzylindazole analogs on C2 ceramide-induced apoptosis in cultured cortical neurons” (Bioorg Med Chem Lett, 2009).

In data set [1] the test system is Cortical neurone. As to the kind of experiment: Neuroprotective activity in Sprague-Dawley rat cortical neurons assessed as reduction in C2 ceramide-induced cell death treated for 2 hrs followed by challenged with C2 ceramide for 24 hrs by MTT assay. Type of data set: functional. In general terms: Formazan colour is commonly taken as a measure of viable cells.
Data set [2] in a line: Neuroprotective activity in Sprague-Dawley rat cortical neurons assessed as reduction in C2 ceramide-induced cell death measured as cell survival at 10 uM for 2 hrs followed by challenged with C2 ceramide for 24 hrs by MTT assay. Type of data set: functional, Cortical neurone.
A short description of data set [3]: Cytotoxicity against Sprague-Dawley rat cortical neurons at 10 uM for 24 hrs by MTT assay. To be noted: cortical neurone.
Data set [4] in a line: Neuroprotective activity in Sprague-Dawley rat cortical neurons assessed as reduction in C2 ceramide-induced cell death measured as cell survival at 10 uM for 2 hrs followed by challenged with C2 ceramide for 24 hrs by MTT assay in presence of U0126 ERK1/2 inhibitor (reference value: 100.2 +/- 1.7%). It is filed as functional, Cortical neurone.
Data set [5] has as its system Cortical neurone. As to the kind of experiment: Neuroprotective activity in Sprague-Dawley rat cortical neurons assessed as attenuation of C2 ceramide-induced apoptosis at 10 uM challenged with C2 ceramide for 24 hrs by Hoechst 33258 staining. It is filed as functional.
The nature of data set [6]: Neuroprotective activity in Sprague-Dawley rat cortical neurons assessed as reduction in C2 ceramide-induced cell death measured as cell survival at 5 uM for 2 hrs followed by challenged with C2 ceramide for 24 hrs by MTT assay. It is filed as functional, Cortical neurone.
The subject of data set [7] is Cortical neurone. As to the kind of experiment: Neuroprotective activity in Sprague-Dawley rat cortical neurons assessed as reduction in C2 ceramide-induced cell death at 30 uM for 2 hrs followed by challenged with C2 ceramide for 24 hrs by MTT assay. It is filed as functional.
A short description of data set [8]: Neuroprotective activity in Sprague-Dawley rat cortical neurons assessed as reduction in C2 ceramide-induced cell death measured as cell survival at 10 uM for 2 hrs followed by challenged with C2 ceramide for 24 hrs by MTT assay in presence of PD98059 ERK1/2 inhibitor (reference value: 100.2 +/- 1.7%). It is filed as functional, Cortical neurone.
A short description of data set [9]: Neuroprotective activity in Sprague-Dawley rat cortical neurons assessed as reduction in C2 ceramide-induced cell death measured as cell survival at 1 uM for 2 hrs followed by challenged with C2 ceramide for 24 hrs by MTT assay. It is filed as functional, Cortical neurone.
Data set [10] can be described thus: Neuroprotective activity in Sprague-Dawley rat cortical neurons assessed as reduction in C2 ceramide-induced cell death measured as cell survival at 2.5 uM for 2 hrs followed by challenged with C2 ceramide for 24 hrs by MTT assay. It is filed as functional, Cortical neurone.

Activity calls are given as the source filed them. The rule behind the calls is not given here.

`Cc1cc2c(o1)c(-c1ccc(C(=O)O)cc1)nn2-c1ccccc1`: the outcome in the data set with Cortical neurone [1] was inactive.
`Cc1cc2c(o1)c(-c1ccc(C(=O)O)cc1)nn2Cc1ccccc1`: the outcome with Cortical neurone [1] was inactive.
Turning to `Cc1cc2c(o1)c(-c1ccc(CO)cc1)nn2-c1ccccc1`, the Activity in data set [2] is 100.2%; in data set [3] it was “Non-toxic”; in data set [4] it was 71.9%; in data set [6], 90.1%; in data set [8], 70.3%; in [9] it was 75.6%. In [10], the Activity came to 81.5%. The outcome in the data set on Cortical neurone [5] and in the data set with Cortical neurone [1] was Active. Moreover, the outcome with Cortical neurone [7] was inactive.
